# Results as given in ChEMBL document CHEMBL5137134, “Developing the Natural Prenylflavone Artocarpin from Artocarpus hirsutus as a Potential Lead Targeting Pathogenic, Multidrug-Resistant Staphylococcus aureus, Persisters and Biofilms with No Detectable Resistance” (J Nat Prod, 2022).
# Activity calls are given as the source filed them. The calls are words filed in the database; no cut-off is given here. Peptide text beside a SMILES is read from it.
# Assays:
# Staphylococcus aureus [1] = test: Synergistic antibacterial activity against Staphylococcus aureus ATCC 29213 assessed as reduction in bacterial growth incubated for 24 hrs in presence of artocarpin by checkerboard method; assay type: functional
# Staphylococcus aureus [2] = test: microbe, parasite or virus in culture; conditions: ATCC 29213
# Description: Antibacterial activity against Staphylococcus aureus ATCC 29213 assessed as reduction in bacterial growth incubated for 16 to 18 hrs by broth microdilution method
# Staphylococcus aureus [3] = test: Bactericidal activity against Staphylococcus aureus ATCC 29213 assessed as increase in extracellular ATP level at 2.5 times MIC after 1 hr by ATP bioluminescence assay; assay type: functional, organism-based
# Staphylococcus aureus [4] = test: Bactericidal activity against Staphylococcus aureus ATCC 29213 assessed as decrease in intracellular ATP level at 2.5 times MIC after 1 hr by ATP bioluminescence assay; assay type: functional, organism-based
# Acinetobacter baumannii [5] = test: Antibacterial activity against Acinetobacter baumannii BAA 1605 assessed as reduction in bacterial growth incubated for 16 to 18 hrs by broth microdilution method; assay type: functional; conditions: time 16-18 hrs
# Escherichia coli [6] = test: Antibacterial activity against Escherichia coli ATCC 25922 assessed as reduction in bacterial growth incubated for 16 to 18 hrs by broth microdilution method; assay type: functional; conditions: time 16-18 hrs
# Staphylococcus aureus [7] = test: Antibacterial activity against Staphylococcus aureus ATCC 29213 infected in Swiss mouse skin infection model assessed as reduction in skin bacterial load at 2 % dose administered twice daily for 4 days; assay type: functional; conditions: time 4 day
# Staphylococcus aureus [8] = test: Post antibiotic effect against Staphylococcus aureus ATCC 29213 at 1 time MIC incubated for 1 hr followed by replacement with drug free medium and measured every 1 hr (reference value: 0 hr); assay type: functional
# Staphylococcus aureus [9] = test: Antibiofilm activity against Staphylococcus aureus ATCC 29213 assessed as reduction in preformed bacterial biofilm mass at 1 time MIC incubated for 24 hrs by crystal violet staining based microtiter plate reader assay; assay type: functional; parameters: scale not given: the % may be the effect or the level left
# Staphylococcus aureus [10] = test: Antibacterial activity against Staphylococcus aureus ATCC 29213 infected in mouse J774A.1 cells assessed as reduction in intracellular bacterial cells at 5 times MIC incubated for 24 hrs followed by re-plating on TSA plate and measured after 18 to 24 hrs; assay type: functional
# Staphylococcus aureus [11] = test: Post antibiotic effect against Staphylococcus aureus ATCC 29213 assessed as time required for 1 log10 increase in CFU at 1 time MIC incubated for 1 hr followed by replacement with drug free medium and measured every 1 hr (reference value: 2 hrs); assay type: functional
# Staphylococcus aureus [12] = test: Post antibiotic effect against Staphylococcus aureus ATCC 29213 at 10 times MIC incubated for 1 hr followed by replacement with drug free medium and measured every 1 hr (reference value: 0 hr); assay type: functional
# [13] = Induction of resistance in Staphylococcus aureus ATCC 29213 assessed as increase in MIC treated over 35 serial passages by resistant development assay; assay type: functional
# Staphylococcus aureus [14] = test: Post antibiotic effect against Staphylococcus aureus ATCC 29213 assessed as time required for 1 log10 increase in CFU at 10 times MIC incubated for 1 hr followed by replacement with drug free medium and measured every 1 hr (reference value: 2 hrs); assay type: functional
# Enterococcus = test: Antibacterial activity against Enterococcus NR 31903 assessed as reduction in bacterial growth incubated for 16 to 18 hrs by broth microdilution method; assay type: functional; conditions: time 16-18 hrs
# Klebsiella pneumoniae = test: Antibacterial activity against Klebsiella pneumoniae BAA 1705 assessed as reduction in bacterial growth incubated for 16 to 18 hrs by broth microdilution method; assay type: functional; conditions: time 16-18 hrs
# Pseudomonas aeruginosa = test: Antibacterial activity against Pseudomonas aeruginosa ATCC 27853 assessed as reduction in bacterial growth incubated for 16 to 18 hrs by broth microdilution method; assay type: functional; conditions: time 16-18 hrs
# Staphylococcus aureus [15] = test: Antibacterial activity against Staphylococcus aureus ATCC 29213 at 1 time MIC after 24 hrs by time kill assay; assay type: functional
# Acinetobacter baumannii [16] = test: Antibacterial activity against Acinetobacter baumannii BAA 1605 assessed as reduction in bacterial growth incubated for 16 to 18 hrs in presence of PMBN by broth microdilution method; assay type: functional; conditions: time 16-18 hrs
# Escherichia coli [17] = test: Antibacterial activity against Escherichia coli ATCC 25922 assessed as reduction in bacterial growth incubated for 16 to 18 hrs in presence of PMBN by broth microdilution method; assay type: functional; conditions: time 16-18 hrs
molecule,measurement,setting,value
CCCCCCCCCC(=O)N[C@@H](Cc1c[nH]c2ccccc12)C(=O)N[C@H](CC(N)=O)C(=O)N[C@@H](CC(=O)O)C(=O)N[C@@H]1C(=O)NCC(=O)N[C@@H](CCCN)C(=O)N[C@@H](CC(=O)O)C(=O)N[C@H](C)C(=O)N[C@@H](CC(=O)O)C(=O)NCC(=O)N[C@H](CO)C(=O)N[C@@H]([C@H](C)CC(=O)O)C(=O)N[C@@H](CC(=O)c2ccccc2N)C(=O)O[C@@H]1C,MIC,Staphylococcus aureus [1],0.5 µg/mL
same,MIC,Staphylococcus aureus [2],1 µg/mL
CC[C@H](C)[C@H](NC(=O)CN)C(=O)NCC(=O)N[C@@H](C)C(=O)N[C@H](C(=O)N[C@@H](CC(C)C)C(=O)N[C@@H](CCCCN)C(=O)N[C@H](C(=O)N[C@@H](CC(C)C)C(=O)N[C@H](C(=O)N[C@H](C(=O)NCC(=O)N[C@@H](CC(C)C)C(=O)N1CCC[C@H]1C(=O)N[C@@H](C)C(=O)N[C@@H](CC(C)C)C(=O)N[C@H](C(=O)N[C@@H](CO)C(=O)N[C@@H](Cc1c[nH]c2ccccc12)C(=O)N[C@H](C(=O)N[C@@H](CCCCN)C(=O)N[C@@H](CCCNC(=N)N)C(=O)N[C@@H](CCCCN)C(=O)N[C@@H](CCCNC(=N)N)C(=O)N[C@@H](CCC(N)=O)C(=O)N[C@@H](CCC(N)=O)C(N)=O)[C@@H](C)CC)[C@@H](C)CC)[C@@H](C)O)[C@@H](C)O)C(C)C)C(C)C,Activity,Staphylococcus aureus [3],Active
same,Activity,Staphylococcus aureus [4],Active
"CC[C@H](C)CCCCC(=O)N[C@@H](CCN)C(=O)N[C@H](C(=O)N[C@@H](CCN)C(=O)N[C@H]1CCNC(=O)[C@H]([C@@H](C)O)NC(=O)[C@H](CCN)NC(=O)[C@H](CCN)NC(=O)[C@H](CC(C)C)NC(=O)[C@@H](Cc2ccccc2)NC(=O)[C@H](CCN)NC1=O)[C@@H](C)O (HELM PEPTIDE1{[CC[C@H](C)CCCCC(=O)[*:2]].[Dab].T.[Dab].[Dab].[Dab].[dF].L.[Dab].[Dab].T}$PEPTIDE1,PEPTIDE1,5:R3-11:R2$$$V2.0)",MIC,Acinetobacter baumannii [5],> 64 µg/mL
same,MIC,Escherichia coli [6],> 64 µg/mL
CC(C)(O/N=C(\C(=O)N[C@@H]1C(=O)N2C(C(=O)[O-])=C(C[n+]3ccccc3)CS[C@H]12)c1csc(N)n1)C(=O)O [CEFTAZIDIME],MIC,Staphylococcus aureus [1],16 µg/mL
same,MIC,Staphylococcus aureus [2],16 µg/mL
CC(=O)O[C@H]1C[C@@]2(C)[C@@H](C[C@@H](O)[C@H]3[C@@]4(C)CC[C@@H](O)[C@@H](C)[C@@H]4CC[C@@]32C)/C1=C(\CCC=C(C)C)C(=O)O [FUSIDIC ACID],Activity,Staphylococcus aureus [7],1.8 log10CFU/g
C[C@H]1COc2c(N3CCN(C)CC3)c(F)cc3c(=O)c(C(=O)O)cn1c23.C[C@H]1COc2c(N3CCN(C)CC3)c(F)cc3c(=O)c(C(=O)O)cn1c23.O [LEVOFLOXACIN],MIC,Staphylococcus aureus [1],0.25 µg/mL
same,PAE,Staphylococcus aureus [8],0.5 h
same,MIC,Staphylococcus aureus [2],0.125 µg/mL
same,Activity,Staphylococcus aureus [9],15%
same,Activity,Staphylococcus aureus [10],0.45 log10CFU/ml
same,Time,Staphylococcus aureus [11],2.5 h
same,PAE,Staphylococcus aureus [12],1.5 h
same,MIC,[13],32 µg/mL
same,Time,Staphylococcus aureus [14],3.5 h
same,MIC,Enterococcus,> 64 µg/mL
same,MIC,Klebsiella pneumoniae,64 µg/mL
same,MIC,Pseudomonas aeruginosa,0.5 µg/mL
CC(=O)NC[C@H]1CN(c2ccc(N3CCOCC3)c(F)c2)C(=O)O1 [LINEZOLID],Activity,Staphylococcus aureus [15],1.6 log10CFU/ml
same,MIC,Staphylococcus aureus [1],1 µg/mL
C[C@@H](O)[C@H]1C(=O)N2C(C(=O)O)=C(S[C@@H]3CN[C@H](C(=O)N(C)C)C3)[C@H](C)[C@H]12 [MEROPENEM],MIC,Staphylococcus aureus [1],2 µg/mL
same,MIC,Staphylococcus aureus [2],1 µg/mL
CN(C)c1ccc(O)c2c1C[C@H]1C[C@H]3[C@H](N(C)C)C(O)=C(C(N)=O)C(=O)[C@@]3(O)C(O)=C1C2=O [MINOCYCLINE],MIC,Staphylococcus aureus [1],0.125 µg/mL
same,MIC,Staphylococcus aureus [2],0.25 µg/mL
CO[C@H]1/C=C/O[C@@]2(C)Oc3c(C)c(O)c4c(O)c(c(/C=N/N5CCN(C)CC5)c(O)c4c3C2=O)NC(=O)/C(C)=C\C=C\[C@H](C)[C@H](O)[C@@H](C)[C@@H](O)[C@@H](C)[C@H](OC(C)=O)[C@@H]1C [RIFAMPIN],MIC,Acinetobacter baumannii [5],2 µg/mL
same,MIC,Acinetobacter baumannii [16],0.03 µg/mL
same,MIC,Staphylococcus aureus [1],0.0078 µg/mL
same,MIC,Staphylococcus aureus [2],0.0078 µg/mL
same,MIC,Escherichia coli [6],8 µg/mL
same,MIC,Escherichia coli [17],0.06 µg/mL
CN[C@H](CC(C)C)C(=O)N[C@H]1C(=O)N[C@@H](CC(N)=O)C(=O)N[C@H]2C(=O)N[C@H]3C(=O)N[C@H](C(=O)N[C@H](C(=O)O)c4cc(O)cc(O)c4-c4cc3ccc4O)[C@H](O)c3ccc(c(Cl)c3)Oc3cc2cc(c3O[C@@H]2O[C@H](CO)[C@@H](O)[C@H](O)[C@H]2O[C@H]2C[C@](C)(N)[C@H](O)[C@H](C)O2)Oc2ccc(cc2Cl)[C@H]1O [VANCOMYCIN],MIC,Acinetobacter baumannii [5],256 µg/mL
same,MIC,Acinetobacter baumannii [16],64 µg/mL
same,PAE,Staphylococcus aureus [8],1 h
same,Activity,Staphylococcus aureus [9],4%
same,MIC,Escherichia coli [6],512 µg/mL
same,Time,Staphylococcus aureus [11],3 h
same,PAE,Staphylococcus aureus [12],1.5 h
same,MIC,Escherichia coli [17],128 µg/mL
same,Time,Staphylococcus aureus [14],3.5 h
GENTAMICIN,MIC,Staphylococcus aureus [1],0.06 µg/mL
